# Test results from patent US12145947B2, “Pyrimidine based modulators and uses thereof” (Quanta Therapeutics, Inc., priority 2022, dated 2024).
# Experiments:
# [1] = molecular target: T1, GST-tagged KRAS-G12D (2-169) (Homo sapiens, UniProt P01116, G12D); assay: Nucleotide exchange assay (NEA), SOS-mediated, HTRF, KRAS G12D; type: biochemical; conditions: Table 4; IC50 extracted at 30 min
# T1 construct: GST-tagged KRAS-G12D (2-169, Reaction Biology, MSC-11-539); purchased Reaction Biology MSC-11-539 (KRAS G12D); MSC-11-502 (SOS1cat)
# T1 sequence (P01116 2-169 isoform P01116-2 G12D): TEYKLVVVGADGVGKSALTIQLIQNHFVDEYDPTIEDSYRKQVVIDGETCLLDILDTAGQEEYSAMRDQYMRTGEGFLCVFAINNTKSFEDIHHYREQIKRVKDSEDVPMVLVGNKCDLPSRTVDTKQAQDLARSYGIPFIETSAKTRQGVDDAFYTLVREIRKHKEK
# From the text: This activity is tightly regulated by GTPase activating proteins (GAPs) and guanine nucleotide exchange factors (GEFs). GEFs, such as SOS1/2, activate Ras proteins by exchanging GDP for GTP, thus returning Ras to its active conformation (Simanshu, Nissley, & McCormick, 2017). […] Homogenous time resolved fluorescence (HTRF) was used to detect SOS-mediated binding of a fluorescent GTP analog, GTP-DY-647P1 (Jena Biosciences NU-820-647P1) to GST-tagged KRAS-G12D (2-169, Reaction Biology, MSC-11-539) or to GST-tagged KRAS-G12V (2-169, Reaction Biology, MSC-11-540).
# GST-tagged KRAS-G12D (2-169) and anti-GST MAb Tb Cryptate Gold (CisBio 61GSTTLB) were diluted into assay buffer (20 mM HEPES, pH 7.3, 150 mM NaCl, 5 mM MgCl2, 0.05% BSA 0.0025% NP40, 1 mM DTT) to prepare a 2.5× donor solution. 5× compound was added to the protein mixture and incubated for 1 h at RT. 2.5× acceptor solution containing SOSIcat (564-1049, Reaction Biology MSC-11-502) and GTP-DY-647P1 were then added to the donor KRAS mixture such that the final concentration of the reaction contained 5 nM GST-tagged KRAS-G12D (2-169), 20 nM SOScat, and 150 nM GTP. The reaction was monitored using at RT with the Envision multimode plate reader (Ex/Em 337/665, […]) up to 90 minutes at 5 minute intervals. To monitor KRAS-G12V Sos-mediated nucleotide exchange, 80 nM SOS was added to reaction instead of 20 nM. All other components were the same as previously described. Data was blanked to reactions without SOS1 and % inhibition was calculated such that DMSO only=0% and blank=100%. Curve fitting was done using a 4 parameter fit. Reported IC50 values were extracted at 30 min and 90 min for the KRAS-G12D and KRAS-G12V assays, respectively.
# Curve fitting was done using a 4 parameter fit. NEA KRAS G12D IC50 (uM) values of selected compounds are depicted in Table 2 with compounds having a value <0.01 uM as ++++; >0.01 uM to 0.1 uM as +++; >0.1 uM to 1 uM as ++; >1 uM to 20 uM as +; and >20 uM as NA.
# KRAS G12D/RAF1 = molecular target: T2, KRAS G12D/RAF1 (Homo sapiens, UniProt P01116, G12D); assay: Protein-protein interaction (PPI) HTRF assay KRAS G12D/RAF1; type: binding; conditions: Table 4
# T2 construct: His6-MBP (N, cleaved yes); made in house; host or cells: E. coli
# T2 sequence (P01116 with tags, fused parts or gaps isoform P01116-2 G12D): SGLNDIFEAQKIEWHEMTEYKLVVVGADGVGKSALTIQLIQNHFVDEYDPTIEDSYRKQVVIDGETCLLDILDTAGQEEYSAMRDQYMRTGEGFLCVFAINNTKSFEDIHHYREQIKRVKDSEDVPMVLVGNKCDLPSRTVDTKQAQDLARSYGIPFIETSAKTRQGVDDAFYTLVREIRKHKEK
# Description: Biotinylated KRAS wt and KRAS G12DNV proteins were expressed and purified in conditions similar to those previously reported (Tran, et al., 2021) (Zhang, et al., 2020). Briefly, KRAS (1-169) proteins were expressed in E. coli at 18° C. with an upstream TEV cleavage site (ENLFYQS (SEQ ID NO: 6)) followed an Avi tag sequence ([…] (SEQ ID NO: 7)). KRAS expression constructs contained both a His6 (SEQ ID NO: 8) and maltose-binding protein (MBP) tags at the N-terminus for Ni-NTA column purification prior to overnight TEV cleavage and MBP column purification. The avi-tagged NRAS expression construct contained both a His6 tag (SEQ ID NO: 8) and SUMO cleavage sige at the N-terminus for Ni-NTA column purification followed by His-ULPi digestion overnight. All avi-tagged RAS proteins were dialyzed into buffer containing ATP, biotin, and BirA followed by purification over a second Ni-NTA column and then run over a size exclusion HiLoad™ 26/600 Superdex™ column in 20 mM HEPES, pH 7.5, 300 mM NaCl, 5 mM MgCl2, and 1 mM TCEP. Fractions containing the protein of interest were pooled, concentrated, and confirmed by intact mass spectrometry. To prepare ‘GTP’ loaded KRAS and NRAS, biotinylated KRAS or NRAS was nucleotide exchanged from GDP-bound protein to GppNHp-bound (Jena Biosciences, NU-401-50) protein in the presence of alkaline phosphatase and excess GppNHp as previously described and the resulting nucleotide content was confirmed by HPLC reverse phase analytical chromatography (Donohue, et al., 2019) (Tran, et al., 2021).
# His-tagged RAF1 (52-131) was similarly expressed in E. coli at 18° C. overnight with an upstream TEV cleavage site. His-tagged RAF1 expression construct contained both a His6 (SEQ ID NO: 8) and MBP tags at the N-terminus for Ni-NTA column purification followed by MBP-tagged TEV digestion overnight. RAF1 protein samples were further purified over a MBP column followed by a Ni-NTA column and a second MBP column. The fractions containing the protein of interest were pooled, concentrated, and further purified over a HiLoad™ 16/600 Superdex™ 75 pg size exclusion column into 20 mM HEPES, pH8.0, 200 mM NaCl, 5 mM TCEP.
# When RAS proteins are in the active GTP-bound conformation, they bind the effector protein RAF1 at the N-terminus Ras-binding domain (RBD, residues 52-131) (Tran, et al., 2021). Homogenous time resolved fluorescence (HTRF) was used to monitor the interaction between wt or mutant KRAS and RAF1 or wt NRAS and RAFT. Compounds were assayed in the presence of KRAS G12D/V and RAF1 versus wt KRAS to assess activity against mutant and w.t. KRAS. Similarly, compounds were then assayed in the presence of w.t. NRAS and RAF1 to assess RAS isoform selectivity. In all assay formats, His-tagged RAF1 protein was incubated with the HTRF donor, anti-6His (“6His” disclosed as SEQ ID NO: 8) Tb Cryptate gold (Cisbio 61DB10RDF), and biotinylated RAS proteins were incubated with the HTRF acceptor, streptavidin-d2 (CisBio 610SADLA). The intensity of the fluorescence signal emitted is proportional to binding between the two proteins. The donor solution was prepared by mixing 16 nM His-tagged RAF1 in protein dilution buffer with 1:100 anti-6His (“6His” disclosed as SEQ ID NO: 8) Tb cryptate in PPI-Terbium detection buffer. 16 nM biotinylated RAS protein was diluted into protein dilution buffer (50 mM Tris-HCl pH 7.5, 150 mM NaCl, 0.1 mM MgCl2, 1 mM TCEP, 0.005% Tween20) and mixed with 1:2000 Streptavidin-d2 diluted in PPI-Terbium detection buffer (CisBio 61DBTORDF). 50× compound in DMSO was mixed with 16 nM KRAS-acceptor solution and incubated for 30 minutes at room temperature. After compound pre-incubation with KRAS, the RAF1 donor solution was added to the KRAS-acceptor solution and incubated for 1 hour at room temperature. The fluorescence signal emitted was monitored at 665 nm and 615 nm using an Envision multimode plate reader. […]
Structure (SMILES),IC50 [1] [nM],IC50 (KRAS G12D/RAF1) [nM]
"N#Cc1c(N)sc2c1C1(CC2)CN(c2nc(OC[C@@]34CCCN3C[C@H](F)C4)nc(N3CCCC(C#N)CC3)c2F)C1 (stereo partly drawn) [Compound 51, 2-amino-1′-[6-(4-cyanoazepan-1-yl)-5-fluoro-2-[[(2R,8S)-2-fluoro-1,2,3,5,6,7-hexahydropyrrolizin-8-yl]methoxy]pyrimidin-4-yl]spiro[5,6-dihydrocyclopenta[b]thiophene-4,3′-azetidine]-3-carbonitrile]",10 to 100,1000 to 10000
"C[C@@H]1COCCN1CC1(COc2nc(N3C[C@H]4CC[C@@H](C3)N4)c(C#N)c(N3CC4(CCc5sc(N)c(C#N)c54)C3)n2)CC1 [Compound 82, 2-amino-1′-[5-cyano-6-[(1R,5S)-3,8-diazabicyclo[3.2.1]octan-3-yl]-2-[[1-[[(3R)-3-methylmorpholin-4-yl]methyl]cyclopropyl]methoxy]pyrimidin-4-yl]spiro[5,6-dihydrocyclopenta[b]thiophene-4,3′-azetidine]-3-carbonitrile]",100 to 1000,10000 to 100000
"N#Cc1c(N2C[C@H]3CC[C@@H](C2)N3)nc(OCC2(CN3CCOCC3)CC2)nc1N1CC2(C1)c1ccccc1CCC2O (stereo partly drawn) [Compound 53, 4-[(1R,5S)-3,8-diazabicyclo[3.2.1]octan-3-yl]-6-(2′-hydroxyspiro[azetidine-3,1′-tetralin]-1-yl)-2-[[1-(morpholinomethyl)cyclopropyl]methoxy]pyrimidine-5-carbonitrile]",100 to 1000,> 100000
"CO/N=C(\C)c1nn2c(c1Cl)CN(c1nc(OC[C@@]34CCCN3C[C@H](F)C4)nc(N3CC4(CCc5sc(N)c(C#N)c54)C3)c1C#N)CCC2 [Compound 20, 2-amino-1′-[6-[3-chloro-2-[(E)-N-methoxy-C-methyl-carbonimidoyl]-4,6,7,8-tetrahydropyrazolo[1,5-a][1,4]diazepin-5-yl]-5-cyano-2-[[(2R,8S)-2-fluoro-1,2,3,5,6,7-hexahydropyrrolizin-8-yl]methoxy]pyrimidin-4-yl]spiro[5,6-dihydrocyclopenta[b]thiophene-4,3′-azetidine]-3-carbonitrile]",< 10,1000 to 10000
"C[C@H]1COCCN1CC1(COc2nc(N3C[C@H]4CC[C@@H](C3)N4)c(C#N)c(N3CC4(CCc5sc(N)c(C#N)c54)C3)n2)CC1 [Compound 77, 2-amino-1′-[5-cyano-6-[(1R,5S)-3,8-diazabicyclo[3.2.1]octan-3-yl]-2-[[1-[[(3S)-3-methylmorpholin-4-yl]methyl]cyclopropyl]methoxy]pyrimidin-4-yl]spiro[5,6-dihydrocyclopenta[b]thiophene-4,3′-azetidine]-3-carbonitrile]",< 10,10000 to 100000
"N#Cc1c(N2C[C@H]3CC[C@@H](C2)N3)nc(OCC2(CN3C[C@@H](F)[C@@H](F)C3)CC2)nc1N1CC2(CCc3sc(N)c(C#N)c32)C1 [Compound 78, 2-amino-1′-[5-cyano-6-[(1R,5S)-3,8-diazabicyclo[3.2.1]octan-3-yl]-2-[[1-[[(3S,4R)-3,4-difluoropyrrolidin-1-yl]methyl]cyclopropyl]methoxy]pyrimidin-4-yl]spiro[5,6-dihydrocyclopenta[b]thiophene-4,3′-azetidine]-3-carbonitrile]",10 to 100,> 100000
"N#Cc1c(N2C[C@H]3CC[C@@H](C2)N3)nc(OCC2(CN3CCC(F)CC3)CC2)nc1N1CC2(CCc3sc(N)c(C#N)c32)C1 [Compound 28, 2-amino-1′-[5-cyano-6-(3,8-diazabicyclo[3.2.1]octan-3-yl)-2-[[1-[(4-fluoro-1-piperidyl)methyl]cyclopropyl]methoxy]pyrimidin-4-yl]spiro[5,6-dihydrocyclopenta[b]thiophene-4,3′-azetidine]-3-carbonitrile]",10 to 100,100 to 1000
"N#Cc1c(N2C[C@H]3CC[C@@H](C2)N3)nc(OCC2(CN3CCOCC3)CC2)nc1N1CC2(C1)C(=O)CCc1ccccc12 [Compound 50, 4-[(1R,5S)-3,8-diazabicyclo[3.2.1]octan-3-yl]-2-[[1-(morpholinomethyl)cyclopropyl]methoxy]-6-(2′-oxospiro[azetidine-3,1′-tetralin]-1-yl)pyrimidine-5-carbonitrile]",1000 to 20000,> 100000
"CN(C)C(=O)c1nn2c(c1Cl)CN(c1nc(OC[C@@]34CCCN3C[C@H](F)C4)nc(N3CC4(C3)c3ccccc3CCC4(F)F)c1C#N)CCC2 [Compound 35, 3-chloro-5-[5-cyano-6-(2′,2′-difluorospiro[azetidine-3,1′-tetralin]-1-yl)-2-[[(2R,8S)-2-fluoro-1,2,3,5,6,7-hexahydropyrrolizin-8-yl]methoxy]pyrimidin-4-yl]-N,N-dimethyl-4,6,7,8-tetrahydropyrazolo[1,5-a][1,4]diazepine-2-carboxamide]",1000 to 20000,> 100000
"N#Cc1cnc(OC[C@@]23CCCN2C[C@H](F)C3)nc1N1CC2(CCc3sc(N)c(C#N)c32)C1 [Compound 65, 2-amino-1′-[5-cyano-2-[[(2R,8S)-2-fluoro-1,2,3,5,6,7-hexahydropyrrolizin-8-yl]methoxy]pyrimidin-4-yl]spiro[5,6-dihydrocyclopenta[b]thiophene-4,3′-azetidine]-3-carbonitrile]",1000 to 20000,10000 to 100000
